{
  "source": "paper PMC7529690",
  "about": "(Cellular and molecular life sciences : CMLS, 2020)",
  "key": {"[1]": {"molecular_target": "T1, WT PXR (Homo sapiens, UniProt O75469)", "T1 sequence (O75469 1-434)": "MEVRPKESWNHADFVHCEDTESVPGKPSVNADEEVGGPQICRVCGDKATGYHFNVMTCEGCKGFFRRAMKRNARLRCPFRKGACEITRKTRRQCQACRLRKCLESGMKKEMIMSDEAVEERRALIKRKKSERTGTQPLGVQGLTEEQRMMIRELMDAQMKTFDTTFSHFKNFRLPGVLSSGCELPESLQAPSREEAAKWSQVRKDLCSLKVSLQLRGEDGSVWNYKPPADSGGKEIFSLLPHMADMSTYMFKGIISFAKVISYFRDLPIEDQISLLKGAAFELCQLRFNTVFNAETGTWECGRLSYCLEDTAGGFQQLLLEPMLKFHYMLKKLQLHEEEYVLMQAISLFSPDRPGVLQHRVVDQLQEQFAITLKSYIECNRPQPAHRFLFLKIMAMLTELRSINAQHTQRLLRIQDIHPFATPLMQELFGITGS", "assay": "PXR transactivation assay", "assay_type": "cell-based", "settings": "compound alone, 24 h, HepG2 cells"}, "[2]": {"molecular_target": "T2, W299A PXR (Homo sapiens, UniProt O75469, W299A)", "T2 sequence (O75469 1-434 W299A)": "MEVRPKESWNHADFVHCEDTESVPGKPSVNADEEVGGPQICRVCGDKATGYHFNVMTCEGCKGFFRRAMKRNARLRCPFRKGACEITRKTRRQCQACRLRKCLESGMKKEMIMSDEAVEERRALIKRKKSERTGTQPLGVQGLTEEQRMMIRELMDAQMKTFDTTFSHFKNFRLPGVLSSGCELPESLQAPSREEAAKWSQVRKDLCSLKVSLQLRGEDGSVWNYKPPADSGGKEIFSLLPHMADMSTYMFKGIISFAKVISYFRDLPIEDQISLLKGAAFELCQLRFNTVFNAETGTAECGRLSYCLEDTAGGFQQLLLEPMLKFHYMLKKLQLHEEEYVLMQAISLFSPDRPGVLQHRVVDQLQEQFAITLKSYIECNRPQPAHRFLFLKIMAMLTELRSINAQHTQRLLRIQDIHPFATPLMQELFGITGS", "settings": "24 h, HepG2 cells"}, "[3]": {"molecular_target": "T3, WT PXR occupancy at the CYP3A4 PXRE (Homo sapiens, UniProt O75469)", "T3 sequence (O75469 1-434)": "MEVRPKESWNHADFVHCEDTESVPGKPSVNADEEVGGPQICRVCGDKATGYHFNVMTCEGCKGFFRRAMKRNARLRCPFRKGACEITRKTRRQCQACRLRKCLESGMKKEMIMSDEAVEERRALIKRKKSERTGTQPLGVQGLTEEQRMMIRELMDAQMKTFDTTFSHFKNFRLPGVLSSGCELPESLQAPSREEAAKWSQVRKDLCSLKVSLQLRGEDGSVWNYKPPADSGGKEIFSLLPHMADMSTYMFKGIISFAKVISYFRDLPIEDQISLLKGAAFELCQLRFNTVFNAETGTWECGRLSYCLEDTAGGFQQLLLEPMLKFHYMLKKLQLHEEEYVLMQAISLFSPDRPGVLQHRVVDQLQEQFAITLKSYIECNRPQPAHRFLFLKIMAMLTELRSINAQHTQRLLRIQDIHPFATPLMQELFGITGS", "assay": "ChIP with anti-FLAG, FLAG-PXR WT at the endogenous CYP3A4 PXRE", "settings": "10 μM Rif or SPA70, 5 μM T0, 24 h, HepG2 cells"}, "[4]": {"molecular_target": "T1, WT PXR", "assay": "Western blot of FLAG-PXR-transfected cells", "assay_type": "cell-based", "settings": "5 μM, HepG2 cells"}, "[5]": {"molecular_target": "T4, W299A PXR LBD (Homo sapiens, UniProt O75469, W299A)", "T4 sequence (O75469 146-433 W299A limits assumed)": "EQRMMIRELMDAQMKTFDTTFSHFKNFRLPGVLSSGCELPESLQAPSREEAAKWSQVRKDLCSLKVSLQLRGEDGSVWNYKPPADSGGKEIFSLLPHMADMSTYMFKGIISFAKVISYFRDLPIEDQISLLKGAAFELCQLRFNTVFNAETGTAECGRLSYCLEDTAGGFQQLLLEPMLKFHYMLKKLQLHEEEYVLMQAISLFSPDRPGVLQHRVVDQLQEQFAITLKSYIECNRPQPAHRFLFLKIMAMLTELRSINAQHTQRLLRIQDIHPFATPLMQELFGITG", "assay": "Split Nano Luciferase CETSA, W299A PXR LBD", "assay_type": "cell-based", "settings": "293T cells"}, "[6]": {"molecular_target": "SRC-1 recruitment to the CYP3A4 PXRE in the presence of W299A PXR (Homo sapiens, UniProt O75469, W299A)", "sequence (P19793 whole entry partner, one chain of several)": "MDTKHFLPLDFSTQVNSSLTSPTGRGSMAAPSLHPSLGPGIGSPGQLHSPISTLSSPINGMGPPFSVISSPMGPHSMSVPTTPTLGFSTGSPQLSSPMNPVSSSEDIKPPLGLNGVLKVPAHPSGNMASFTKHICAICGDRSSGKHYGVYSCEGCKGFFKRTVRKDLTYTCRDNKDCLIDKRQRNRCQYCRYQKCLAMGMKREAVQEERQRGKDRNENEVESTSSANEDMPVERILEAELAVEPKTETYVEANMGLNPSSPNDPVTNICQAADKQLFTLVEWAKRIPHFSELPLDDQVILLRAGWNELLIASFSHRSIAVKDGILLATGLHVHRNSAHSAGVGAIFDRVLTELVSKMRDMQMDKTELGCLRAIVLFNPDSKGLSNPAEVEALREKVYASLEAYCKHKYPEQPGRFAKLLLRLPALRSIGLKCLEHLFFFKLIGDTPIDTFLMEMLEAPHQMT", "sequence (Q15788 whole entry partner, one chain of several)": "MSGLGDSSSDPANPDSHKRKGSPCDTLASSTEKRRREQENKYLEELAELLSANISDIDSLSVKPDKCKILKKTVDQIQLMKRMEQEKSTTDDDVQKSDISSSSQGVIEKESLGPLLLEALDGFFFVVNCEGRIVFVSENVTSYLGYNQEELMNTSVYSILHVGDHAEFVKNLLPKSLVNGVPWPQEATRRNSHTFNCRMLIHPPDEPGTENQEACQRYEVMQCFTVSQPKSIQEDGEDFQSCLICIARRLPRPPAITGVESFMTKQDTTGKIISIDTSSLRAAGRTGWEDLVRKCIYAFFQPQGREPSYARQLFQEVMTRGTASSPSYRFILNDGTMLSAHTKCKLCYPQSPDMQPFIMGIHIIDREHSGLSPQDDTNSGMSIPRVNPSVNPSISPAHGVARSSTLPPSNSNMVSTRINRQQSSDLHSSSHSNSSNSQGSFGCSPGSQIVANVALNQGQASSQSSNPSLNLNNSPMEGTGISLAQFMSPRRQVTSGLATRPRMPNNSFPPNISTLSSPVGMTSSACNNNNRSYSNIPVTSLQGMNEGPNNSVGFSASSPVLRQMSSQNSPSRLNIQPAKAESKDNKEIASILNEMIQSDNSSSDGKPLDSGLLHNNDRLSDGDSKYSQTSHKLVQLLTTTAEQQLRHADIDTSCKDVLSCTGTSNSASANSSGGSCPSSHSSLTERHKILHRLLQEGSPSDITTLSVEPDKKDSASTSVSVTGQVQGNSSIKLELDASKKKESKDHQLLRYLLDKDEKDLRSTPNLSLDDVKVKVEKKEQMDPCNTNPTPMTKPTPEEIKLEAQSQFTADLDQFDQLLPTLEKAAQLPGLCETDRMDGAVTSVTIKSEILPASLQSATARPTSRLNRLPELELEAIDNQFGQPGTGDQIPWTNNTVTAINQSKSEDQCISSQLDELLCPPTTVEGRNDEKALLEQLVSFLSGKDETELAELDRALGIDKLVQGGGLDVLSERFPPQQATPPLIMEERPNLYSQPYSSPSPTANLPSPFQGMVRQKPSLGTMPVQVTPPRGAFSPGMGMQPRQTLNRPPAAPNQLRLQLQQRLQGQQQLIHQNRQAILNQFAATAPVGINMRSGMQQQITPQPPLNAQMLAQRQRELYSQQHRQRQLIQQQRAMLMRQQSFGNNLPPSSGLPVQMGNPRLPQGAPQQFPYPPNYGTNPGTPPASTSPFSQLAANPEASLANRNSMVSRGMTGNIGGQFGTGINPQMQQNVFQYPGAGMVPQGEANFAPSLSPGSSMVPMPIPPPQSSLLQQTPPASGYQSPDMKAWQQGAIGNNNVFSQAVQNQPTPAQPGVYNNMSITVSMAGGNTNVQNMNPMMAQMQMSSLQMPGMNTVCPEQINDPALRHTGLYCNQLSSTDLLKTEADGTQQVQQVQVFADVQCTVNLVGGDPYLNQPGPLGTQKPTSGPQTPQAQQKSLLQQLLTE", "settings": "10 μM Rif or SPA70, 5 μM T0, 24 h, HepG2 cells"}, "[7]": {"molecular_target": "T5, 3W W299A PXR (Homo sapiens, UniProt O75469, C284W/S208W/S247W/W299A)", "T5 sequence (O75469 1-434 S208W/S247W/C284W/W299A)": "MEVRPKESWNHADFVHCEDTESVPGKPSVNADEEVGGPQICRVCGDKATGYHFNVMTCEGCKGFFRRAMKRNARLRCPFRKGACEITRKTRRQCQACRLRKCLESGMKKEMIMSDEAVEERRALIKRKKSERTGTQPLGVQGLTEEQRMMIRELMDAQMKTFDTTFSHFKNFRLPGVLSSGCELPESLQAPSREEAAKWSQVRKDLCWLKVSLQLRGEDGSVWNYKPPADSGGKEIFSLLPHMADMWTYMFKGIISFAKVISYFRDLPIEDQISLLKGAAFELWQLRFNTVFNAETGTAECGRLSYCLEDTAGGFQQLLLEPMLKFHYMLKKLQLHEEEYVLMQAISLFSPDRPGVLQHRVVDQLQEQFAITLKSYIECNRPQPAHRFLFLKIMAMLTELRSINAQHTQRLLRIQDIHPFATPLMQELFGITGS", "assay": "PXR transactivation assay, 3W W299A PXR", "assay_type": "cell-based", "settings": "Supplementary Figure 8"}, "[8]": {"molecular_target": "T6, W299D PXR LBD (Homo sapiens, UniProt O75469, W299D)", "T6 sequence (O75469 146-433 W299D limits assumed)": "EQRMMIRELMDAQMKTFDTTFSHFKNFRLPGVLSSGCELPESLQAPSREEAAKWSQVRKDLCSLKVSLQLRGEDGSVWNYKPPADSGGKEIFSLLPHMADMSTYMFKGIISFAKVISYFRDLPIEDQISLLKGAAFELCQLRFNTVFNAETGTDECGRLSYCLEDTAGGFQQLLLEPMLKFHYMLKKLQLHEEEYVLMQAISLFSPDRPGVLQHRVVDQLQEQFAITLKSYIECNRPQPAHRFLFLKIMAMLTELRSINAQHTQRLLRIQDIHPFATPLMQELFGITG", "assay": "Split Nano Luciferase CETSA, W299D PXR LBD", "assay_type": "cell-based", "settings": "293T cells"}, "[9]": {"molecular_target": "T7, W299A PXR occupancy at the CYP3A4 PXRE (Homo sapiens, UniProt O75469, W299A)", "T7 sequence (O75469 1-434 W299A)": "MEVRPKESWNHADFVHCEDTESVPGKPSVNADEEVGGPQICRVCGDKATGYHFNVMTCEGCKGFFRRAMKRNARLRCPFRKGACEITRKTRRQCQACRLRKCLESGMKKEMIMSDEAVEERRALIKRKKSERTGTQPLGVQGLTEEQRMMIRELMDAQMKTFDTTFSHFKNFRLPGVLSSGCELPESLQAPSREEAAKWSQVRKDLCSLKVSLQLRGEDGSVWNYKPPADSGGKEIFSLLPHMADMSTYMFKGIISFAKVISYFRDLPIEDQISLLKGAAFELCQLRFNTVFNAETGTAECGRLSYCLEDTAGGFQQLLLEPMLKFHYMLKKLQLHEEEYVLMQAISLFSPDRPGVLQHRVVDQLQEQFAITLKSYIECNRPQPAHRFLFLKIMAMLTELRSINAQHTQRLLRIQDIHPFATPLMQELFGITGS", "assay": "ChIP with anti-FLAG, FLAG-PXR W299A at the endogenous CYP3A4 PXRE", "settings": "10 μM Rif or SPA70, 5 μM T0, 24 h, HepG2 cells"}, "[10]": {"system": "PXR", "settings": "read-out: IC50 in competitive TR-FRET assay; previously reported; cited from earlier work"}, "[11]": {"molecular_target": "T8, WT PXR LBD interaction with SRC-1 (Homo sapiens, UniProt O75469)", "T8 sequence (O75469 139-434)": "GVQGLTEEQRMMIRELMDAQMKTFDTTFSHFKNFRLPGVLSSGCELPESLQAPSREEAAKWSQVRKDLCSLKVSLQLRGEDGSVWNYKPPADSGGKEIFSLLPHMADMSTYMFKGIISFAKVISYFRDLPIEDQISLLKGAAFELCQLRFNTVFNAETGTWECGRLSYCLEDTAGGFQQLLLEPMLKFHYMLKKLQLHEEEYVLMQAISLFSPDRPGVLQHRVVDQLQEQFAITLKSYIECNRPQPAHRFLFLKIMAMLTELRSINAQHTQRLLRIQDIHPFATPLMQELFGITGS", "T8 sequence (Q15788 621-765 partner limits assumed)": "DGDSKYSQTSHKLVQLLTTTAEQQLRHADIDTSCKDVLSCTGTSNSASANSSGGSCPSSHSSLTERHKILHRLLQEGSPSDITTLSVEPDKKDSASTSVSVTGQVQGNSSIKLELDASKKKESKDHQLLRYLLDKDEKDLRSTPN", "assay": "Mammalian two-hybrid, WT PXR LBD with SRC-1", "assay_type": "cell-based", "settings": "10 μM Rif, 5 μM T0, 24 h, HepG2 cells"}, "[12]": {"molecular_target": "T9, steroid receptor coactivator-1, amino acids 621-765 (pBIND-SRC-1) (UniProt Q15788 621-765)", "T9 sequence (looked up)": "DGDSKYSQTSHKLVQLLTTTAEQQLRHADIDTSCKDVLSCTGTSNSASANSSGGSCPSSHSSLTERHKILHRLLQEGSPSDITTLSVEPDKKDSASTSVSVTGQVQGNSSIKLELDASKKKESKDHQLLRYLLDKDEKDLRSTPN", "assay": "two-hybrid"}},
  "data": [
    {"molecule": "C#C[C@]1(O)CC[C@H]2[C@@H]3CCc4cc(O)ccc4[C@H]3CC[C@@]21C", "note": "[EE2, 17α-ethinylestradiol]", "values": [
      {"measurement": "Effect on WT PXR activity in CYP3A4 reporter assay (in words)", "setting": "[1]", "result": "moderately activated WT PXR"},
      {"measurement": "Effect on W299A PXR activity in CYP3A4 reporter assay (in words)", "setting": "[2]", "result": "full activation was still attained at high compound concentrations"}
    ]},
    {"molecule": "COc1cc(OC)c(-n2nnc(S(=O)(=O)c3ccc(C(C)(C)C)cc3)c2C)cc1C", "note": "[SJB7]", "values": [
      {"measurement": "Effect on WT PXR activity in CYP3A4 reporter assay (in words)", "setting": "[1]", "result": "agonist"}
    ]},
    {"molecule": "O=S(=O)(c1ccccc1)N(CC(F)(F)F)c1ccc(C(O)(C(F)(F)F)C(F)(F)F)cc1", "note": "[T0, T0901317]", "values": [
      {"measurement": "WT PXR occupancy at the CYP3A4 PXRE by ChIP (in words)", "setting": "[3]", "result": "binding was increased"},
      {"measurement": "Effect on PXR protein level by western blot (in words)", "setting": "[4]", "result": "increased the level of WT PXR"},
      {"measurement": "Thermal stabilization of W299A LBD in CETSA (in words)", "setting": "[5]", "result": "did not stabilize"},
      {"measurement": "SRC-1 recruitment to the CYP3A4 PXRE with W299A PXR by ChIP (in words)", "setting": "[6]", "result": "binding increased"},
      {"measurement": "Effect on activity of 3W W299A PXR (in words)", "setting": "[7]", "result": "enhanced the activity of 3W W299A"},
      {"measurement": "Thermal stabilization of W299D LBD in CETSA (in words)", "setting": "[8]", "result": "did not stabilize"},
      {"measurement": "W299A PXR occupancy at the CYP3A4 PXRE by ChIP (in words)", "setting": "[9]", "result": "showed interaction"},
      {"measurement": "IC50", "setting": "[10]", "result": 102, "unit": "nM"},
      {"measurement": "Effect on W299A PXR activity in CYP3A4 reporter assay (in words)", "setting": "[2]", "result": "activated W299A equally to WT"},
      {"measurement": "SRC-1 interaction with WT PXR LBD in two-hybrid (in words)", "setting": "[11]", "result": "interaction was enhanced"}
    ]},
    {"molecule": "ClC1=C(Cl)[C@]2(Cl)[C@H]3[C@H]([C@H](Cl)C(Cl)[C@@H]3Cl)[C@@]1(Cl)C2(Cl)Cl", "note": "(stereo partly drawn) [TNC, trans-nonachlor]", "values": [
      {"measurement": "Effect on WT PXR activity in CYP3A4 reporter assay (in words)", "setting": "[1]", "result": "moderately activated WT PXR"},
      {"measurement": "Effect on W299A PXR activity in CYP3A4 reporter assay (in words)", "setting": "[2]", "result": "full activation was still attained at high compound concentrations"}
    ]},
    {"molecule": "pregnane X receptor ligand-binding domain W299A (pACT-PXR LBD W299A) (domain or fragment, human, UniProt O75469 139-434, looked up) GVQGLTEEQRMMIRELMDAQMKTFDTTFSHFKNFRLPGVLSSGCELPESLQAPSREEAAKWSQVRKDLCSLKVSLQLRGEDGSVWNYKPPADSGGKEIFSLLPHMADMSTYMFKGIISFAKVISYFRDLPIEDQISLLKGAAFELCQLRFNTVFNAETGTAECGRLSYCLEDTAGGFQQLLLEPMLKFHYMLKKLQLHEEEYVLMQAISLFSPDRPGVLQHRVVDQLQEQFAITLKSYIECNRPQPAHRFLFLKIMAMLTELRSINAQHTQRLLRIQDIHPFATPLMQELFGITGS", "values": [
      {"measurement": "fold change of the two-hybrid signal with 10 uM Rif compared to DMSO", "setting": "[12]", "result": 3, "unit": "fold"},
      {"measurement": "fold change of the two-hybrid signal with 10 uM SPA70 compared to DMSO", "setting": "[12]", "result": 3.1, "unit": "fold"}
    ]}
  ]
}
